How the values were obtained:
Type in all cases: cell-based
[1] = system: Mino cells; test: Antiproliferative effect, MTS cell viability assay, Mino cells; details: Homo sapiens, MINO, Mino mantle cell lymphoma cells; read-out: IC50 (anti-proliferation) Mino cells
Outline: (§1)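 Tested at six concentrations (0 to 10 μM in tenfold steps), 72 h; viability by MTS, A490.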

[2] = system: JeKo-1 cells; test: Antiproliferative effect, MTS cell viability assay, JeKo-1 cells; details: Homo sapiens; JeKo-1 mantle cell lymphoma cells; read-out: IC50 (anti-proliferation) JeKO-1 cells
Outline: as §1

[3] = target: BTK (Homo sapiens, UniProt Q06187); test: BTK degradation, DC50 and Dmax of Table 1 (cell line not given); set-up: endogenous in cells; details: for DC50: concentration giving 50% reduction of BTK expression level
Chain of BTK (Q06187 whole entry): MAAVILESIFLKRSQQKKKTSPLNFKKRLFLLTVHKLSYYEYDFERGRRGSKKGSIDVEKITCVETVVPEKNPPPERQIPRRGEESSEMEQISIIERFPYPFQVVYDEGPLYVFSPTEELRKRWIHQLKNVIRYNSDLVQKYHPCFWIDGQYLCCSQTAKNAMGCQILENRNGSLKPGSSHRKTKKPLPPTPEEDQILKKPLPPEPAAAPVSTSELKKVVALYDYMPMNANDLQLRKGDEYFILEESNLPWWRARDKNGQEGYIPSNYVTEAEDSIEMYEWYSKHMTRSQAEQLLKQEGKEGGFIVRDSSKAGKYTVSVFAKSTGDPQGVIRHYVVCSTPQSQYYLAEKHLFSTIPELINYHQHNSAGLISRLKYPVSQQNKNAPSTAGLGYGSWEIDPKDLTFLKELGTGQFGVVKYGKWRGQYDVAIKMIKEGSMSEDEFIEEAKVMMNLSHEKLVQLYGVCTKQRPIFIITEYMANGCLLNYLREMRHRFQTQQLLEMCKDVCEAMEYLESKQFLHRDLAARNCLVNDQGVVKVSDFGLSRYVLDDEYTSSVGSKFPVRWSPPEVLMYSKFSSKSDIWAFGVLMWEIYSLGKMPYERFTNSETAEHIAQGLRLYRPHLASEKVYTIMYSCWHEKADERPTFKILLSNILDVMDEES

SMILES | IC50 [1] | IC50 [2] | Dmax [3] | DC50 [3]
Nc1ncnc2c1c(-c1ccc(Oc3ccccc3)cc1)nn2[C@@H]1CCCN(C2CCN(CCN3CCN(c4ccc5c(c4)C(=O)N(C4CCC(=O)NC4=O)C5=O)CC3)CC2)C1 (stereo partly drawn) [Compound 147, 5-(4-(2-((R)-3-(4-amino-3-(4-phenoxyphenyl)-1H-pyrazolo[3,4-d]pyrimidin-1-yl)-[1,4′-bipiperidin]-1′-yl)ethyl)piperazin-1-yl)-2-(2,6-dioxopiperidin-3-yl)isoindoline-1,3-dione] | > 10 µM | > 10 µM | > 75% | 10 to 50 nM
Nc1ncnc2c1c(-c1ccc(Oc3ccccc3)cc1)nn2[C@@H]1CCCN(C2CCN(CCN3CCN(c4ccc5c(c4)CN(C4CCC(=O)NC4=O)C5=O)CC3)CC2)C1 (stereo partly drawn) [Compound 148, 3-(5-(4-(2-((R)-3-(4-amino-3-(4-phenoxyphenyl)-1H-pyrazolo[3,4-d]pyrimidin-1-yl)-[1,4′-bipiperidin]-1′-yl)ethyl)piperazin-1-yl)-1-oxoisoindolin-2-yl)piperidine-2,6-dione] | 1 to 10 µM | > 10 µM | > 75% | 10 to 50 nM
Nc1ncnc2c1c(-c1ccc(Oc3ccccc3)cc1)nn2[C@@H]1CCCN(C2CCN(CCN3CCC(c4ccc5c(c4)C(=O)N(C4CCC(=O)NC4=O)C5=O)CC3)CC2)C1 (stereo partly drawn) [Compound 149, 5-(1-(2-((R)-3-(4-amino-3-(4-phenoxyphenyl)-1H-pyrazolo[3,4-d]pyrimidin-1-yl)-[1,4′-bipiperidin]-1′-yl)ethyl)piperidin-4-yl)-2-(2,6-dioxopiperidin-3-yl)isoindoline-1,3-dione] | 1 to 10 µM | > 10 µM | > 90% | 10 to 50 nM
Nc1ncnc2c1c(-c1ccc(Oc3ccccc3)cc1)nn2[C@@H]1CCCN(C2CCN(CCN3CCC(c4ccc5c(c4)CN(C4CCC(=O)NC4=O)C5=O)CC3)CC2)C1 (stereo partly drawn) [Compound 150, 3-(5-(1-(2-((R)-3-(4-amino-3-(4-phenoxyphenyl)-1H-pyrazolo[3,4-d]pyrimidin-1-yl)-[1,4′-bipiperidin]-1′-yl)ethyl)piperidin-4-yl)-1-oxoisoindolin-2-yl)piperidine-2,6-dione] | > 10 µM | 1 to 10 µM | > 75% | 10 to 50 nM
Nc1ncnc2c1c(-c1ccc(Oc3ccccc3)cc1)nn2[C@@H]1CCCN(C2CCN(CCCN3CCN(c4ccc5c(c4)C(=O)N(C4CCC(=O)NC4=O)C5=O)CC3)CC2)C1 (stereo partly drawn) [Compound 151, 5-(4-(3-((R)-3-(4-amino-3-(4-phenoxyphenyl)-1H-pyrazolo[3,4-d]pyrimidin-1-yl)-[1,4′-bipiperidin]-1′-yl)propyl)piperazin-1-yl)-2-(2,6-dioxopiperidin-3-yl)isoindoline-1,3-dione] | > 10 µM | > 10 µM | > 75% | > 50 nM
Nc1ncnc2c1c(-c1ccc(Oc3ccccc3)cc1)nn2[C@@H]1CCCN(C2CCN(CCCN3CCN(c4ccc5c(c4)CN(C4CCC(=O)NC4=O)C5=O)CC3)CC2)C1 (stereo partly drawn) [Compound 152, 3-(5-(4-(3-((R)-3-(4-amino-3-(4-phenoxyphenyl)-1H-pyrazolo[3,4-d]pyrimidin-1-yl)-[1,4′-bipiperidin]-1′-yl)propyl)piperazin-1-yl)-1-oxoisoindolin-2-yl)piperidine-2,6-dione] | > 10 µM | > 10 µM | > 75% | > 50 nM
Nc1ncnc2c1c(-c1ccc(Oc3ccccc3)cc1)nn2[C@@H]1CCCN(C2CCN(CCCN3CCC(c4ccc5c(c4)C(=O)N(C4CCC(=O)NC4=O)C5=O)CC3)CC2)C1 (stereo partly drawn) [Compound 153, 5-(1-(3-((R)-3-(4-amino-3-(4-phenoxyphenyl)-1H-pyrazolo[3,4-d]pyrimidin-1-yl)-[1,4′-bipiperidin]-1′-yl)propyl)piperidin-4-yl)-2-(2,6-dioxopiperidin-3-yl)isoindoline-1,3-dione] | > 10 µM | > 10 µM | > 75% | > 50 nM
